Assay results taken from patent US20020037844A1, “SYNTHETIC PEPTIDE FOR TREATMENT OF AUTOIMMUNE ARTHRITIS” (priority 1993, published 2002).
“Also recorded” adds a separate entry of the source.

Assays:
[1] = test system: collagen induced arthritis in neonatally tolerized mice; test: Neonatal tolerance: peptide given at birth, CII challenge at eight weeks, arthritis observed; type: in vivo; details: administered to neonatal mice prior to immunization with CII
Text: To measure the incidence of arthritis in immunized mice, individuals examined and scored each of the forepaws and hind paws on a scale of 0-4 as described in Wooley, P. H., H. W. Luthra, J. M. Stuart and C. S. David. 1981. “Type 11 Collagen-induced Arthritis in Mice”. I. Major Histocompatibility Complex (I region) Linkage and Antibody Correlates. J. Exp. Med. 154:688. This article is incorporated herein by reference. There were two separate examiners, one of whom was unaware of the identity of the treatment groups. Each mouse was scored three times a week beginning three weeks post immunization and continuing through 8 weeks post immunization. The incidence of arthritis (number of animals with one or more arthritic limbs) was reported at 6 weeks post immunization, the time point at which the control group reached its peak of disease. The incidence of arthritis in various groups of mice was compared using Fisher's Exact Test. Student's T test was used to compare means of antibody responses to CII.
The foregoing data support the hypothesis that analog peptide CII 245-270[s260, 261, 263] competes for binding to I-A^q. […] Synthetic peptides were solubilized directly in phosphate buffered saline (PBS) at a concentration of 1 mg/ml. […]

antibodies to CII = test: Serum antibodies to CII by ELISA in neonatally treated mice; type: in vivo; details: 100 μg antigen in IFA intraperitoneally within 24 hours of birth; serum four weeks after immunization; mean titer
Experimental: (§1) Mice were bled at four weeks after immunization and the serum was tested for antibodies reactive with type II collagen by enzyme-linked immunoassay (ELISA) described in Stuart, J. M., A. S. Townes, and A. H. Kang. 1982. Nature and Specificity of the Immune Response to Collagen in Type II Collagen-Induced Arthritis in Mice, J. Clin. Invest. 69:673. The disclosure of this article is incorporated by reference An anti-CII serum standard was used in each assay. A standard curve was derived by computer analysis using a 4 parameter logistic curve. Results are reported as units of activity, derived by comparison of test sera with the curve derived from the anti-CII standard which was arbitrarily defined as having 50 units of activity. Sera from mice were tested individually, and means were calculated for each experimental group.
The foregoing data support the hypothesis that analog peptide CII 245-270[s260, 261, 263] competes for binding to I-A^q. […] Synthetic peptides were solubilized directly in phosphate buffered saline (PBS) at a concentration of 1 mg/ml. Neonatal mice were tolerized using a protocol described by Gammon et al.^21 in which antigen emulsified with incomplete Freund's adjuvant was injected intraperitoneally. Gammon, Dunn, Shastri, Oki, Wilbur, Sercarz, 1986, Neonatal T Cell Tolerance to Minimal Immunogenic Peptides is Caused by Clonal Inactivation, Nature (Lond) 319:413. […]

[2] = test system: antibodies reactive with type II collagen; test: Serum antibodies to CII by ELISA in co-immunized mice; type: in vivo, DBA/1 mice; details: for Antibodies to CII: serum four weeks after immunization, mean
Experimental: as §1
In order to assess the effects of co-immunizing mice with both CII 245-270[s260, 261, 263] and CII, the mean antibody titers to native CII were measured for each immunization group in Table III, four weeks after immunization (Table IV).

[3] = target: T1, I-A^q on the surface of antigen presenting cells (Mus musculus, UniProt P04227+P06342); test: Competitive antigen presentation assay: pulsed APC presented to CII 245-270 specific T-cell hybridomas, IL-2 titer; type: cell-based, DBA/1 mice; details: for Binding to I-A^q / competition for presentation of the wild type peptide to T-cell hybridomas: conclusion from Table II
T1 construct: containing 4×10^5 syngenic spleen cells and 10^5 T-hybridoma cells; from tissue; host or cells: spleen cells syngeneic to DBA/1 mice (H-2q), used as antigen presenting cells
Experimental: Lymph node cells were obtained from DBA/1 mice immunized with α1(II)-CB11 emulsified with complete Freund's adjuvant and cultured in vitro with α1(II)-CB11 for five days, and in the presence of IL-2 for three days before fusion. Hybridoma cells reactive to CB11 [CII 245-270] and CII were cloned by limiting dilution to 0.3 cells/well. Antigen presentation experiments were performed in 96 well […] plates in a total volume of 0.3 ml containing 4×10^5 syngenic spleen cells and 10^5 T-hybridoma cells. For competitive inhibition assays, spleen cells were pulsed with various ratios of inhibitor to indicator peptide and washed several times prior to addition to the antigen presentation culture. Cell cultures were maintained at 37° C. in 5% humidified CO2 for 20 to 24 hours, after which seven 80 μl two-fold serial dilutions were made for determination of IL-2 titers. Four thousand HT-2 cells were added to each supernatant dilution, and after 16 to 20 hours HT-2 cell viability was evaluated by visual inspection. IL-2 titers were determined by the reciprocal of the highest two-fold serial dilution maintaining 90% viability of the HT-2 cells. Results are presented as units of IL-2 per ml of undiluted supernatant as described by Kapper et al. Kappler, J., J. White, D. Wegman, E. Mustain, and P. Marrack, 1982, Antigen Presentation by Ia^+B Cell Hybridomas to H-2 Restricted T Cell Hybridomas. Proc. Natl. Acad. Sci. USA 79:3604. The disclosure of this article is incorporated by reference.
The inability of some analog peptides to stimulate T cells likely occurs either because of disruption of peptide binding to the I-A^q molecule or the inability of the T cell receptor to recognize the peptide. In order to determine whether the analog peptides could bind to the class II molecule, competitive antigen presentation assays were performed. Antigen presenting cells (APC) were pulsed with various molar ratios of CII 245-270 and an analog peptide, and tested for their ability to stimulate CII 245-270 specific T cell hybridomas.

[4] = test system: collagen induced arthritis (CIA) in DBA/1 mice; test: Collagen induced arthritis, simultaneous immunization with CII and peptide; type: in vivo; details: for Development / incidence of arthritis, in words: co-injected with native CII, molar ratio CII:peptide 1:480
CII-primed T cells = test: T cell stimulation assay, γ-IFN production by CII-primed spleen and lymph node cells; type: cell-based, mice; details: CII-primed T cells cultured with 100 μm of antigen; FIG. 1
Experimental: Nowarck H., E. Hahn, R. Timple, 1976, “Requirements for T Cells in the Antibody Response of Mice to Calf Skin Collagen,” J. Immunol. 30:29. Each peptide was cultured with pooled spleen and lymph node cells from CII-immunized mice, and culture supernatant fluids were tested for the presence of γ-interferon as an indicator of T cell stimulation. T cell hybridomas were established by polyethylene glycol-induced fusion of lymph node cells with the T cell receptor α^−/β^−thymoma line, BW5147. White, M., M. Blackman, J. Bill, J. Kappler, P. Marrack, D. P. Gold, and W. Born, 1989, Two Better Cell Lines for Making Hybridomas Expressing Specific T Cell Receptors. J. Immunol. 143:1822. […]
(§2) T cell stimulation assays were performed in 96 well plates and the degree of stimulation was quantitated by measurements of γ-IFN production. […] Supernatants were collected from 72 to 120 hours later and either […] analyzed for γ-IFN production immediately or stored at −70° C. prior to analysis. Quantitative measurement of murine gamma interferon was done using a solid-phase enzyme-linked immunosorbent assay (Amgen Biologicals, Thousand Oaks, Calif.). […] The absorbance was measured at 405 nm with a spectrophotometer, and a standard curve was obtained by plotting the absorbance versus the corresponding concentration of the standards. Units of γ-interferon were calculated based on NIH standard number Gg02-901-533. […]

CII-primed, bulk T cells = test: Inhibition of antigen presentation to CII-primed bulk T cells (co-culture); type: cell-based, DBA/1 mice; details: analog co-cultured with CII 245-270 or native CII at various ratios; FIG. 2
Experimental: as §2, with “production. Myers, L. K., K. Terato, J. M. Seyer, J. M. Stuart, and A. H. Kang, 1992, Characterization of a Tolerogenic T Cell Epitope of Type II Collagen and its Relevance to Collagen-Induced Arthritis. J. Immunol. 149:1439. The disclosure of this article is incorporated by reference. Spleens and lymph nodes from mice immunized with CII 14 to 21 days prior were individually minced into single cell suspensions in Hank's Balanced Salt Solution (BSS) and washed 3 times.” for “production.”

[5] = test system: collagen induced arthritis in neonatally tolerized mice; details: Myers et al. 1989, J. Exp. Med. 170:1999; cited from earlier work

## Pro - Thr - Gly - Pro - Leu - Gly - Pro - Lys - Gly - Gln - Thr - Gly - Glx - Leu - Gly - Ala - 4Hyp - Gly - Asn - Lys - Gly - Glx - Gln - Gly - Pro - Lys [CII 245-270 [s260, 261, 263], analog of CII 245-270 with alanine at 260, hydroxyproline at 261, asparagine at 263]
[1]; 261, 263]
  Effectiveness as neonatal tolerogen, in words: ineffective as a CII tolergen; also recorded: very poor tolerogen
Antibodies to CII
  Antibodies to CII: 55.6 ± 19
[2]; co-immunization with CII
  Immune responses to CII in vivo as well as in vitro, in words: significantly down regulated
[2]; molar ratio CII:peptide 1:160
  Antibodies to CII: 53 ± 25 units of activity
[2]; molar ratio CII:peptide 1:320
  Antibodies to CII: 34 ± 22 units of activity
[2]; molar ratio CII:peptide 1:480
  Antibodies to CII: 17 ± 3 units of activity
[3]; T-cell hybrid 2qCII92.33, molar ratio competitor:CII 245-270 1.6:1
  IL-2: 160 U/ml
[3]; T-cell hybrid 2qCII92.33, molar ratio competitor:CII 245-270 3.2:1
  IL-2: 80 U/ml
[3]; T-cell hybrid 2qCII92.33, molar ratio competitor:CII 245-270 6.5:1
  IL-2: 20 U/ml
[3]; T-cell hybrid 2qCII92.33, molar ratio competitor:CII 245-270 13:1
  IL-2: — (A “—” indicates less than 20 U/ml of IL-2 detected)
[3]; T-cell hybrid qCII85.33, molar ratio competitor:CII 245-270 1.6:1
  IL-2: 640 U/ml
[3]; T-cell hybrid qCII85.33, molar ratio competitor:CII 245-270 3.2:1
  IL-2: 320 U/ml
[3]; T-cell hybrid qCII85.33, molar ratio competitor:CII 245-270 6.5:1
  IL-2: 40 U/ml
[3]; T-cell hybrid qCII85.33, molar ratio competitor:CII 245-270 13:1
  IL-2: —* (A “—” indicates less than 20 U/ml of IL-2 detected)
[3]; T-cell hybrid qCII98.10, molar ratio competitor:CII 245-270 1.6:1
  IL-2: 160 U/ml
[3]; T-cell hybrid qCII98.10, molar ratio competitor:CII 245-270 3.2:1
  IL-2: 80 U/ml
[3]; T-cell hybrid qCII98.10, molar ratio competitor:CII 245-270 6.5:1
  IL-2: 40 U/ml
[3]; T-cell hybrid qCII98.10, molar ratio competitor:CII 245-270 13:1
  IL-2: — (A “—” indicates less than 20 U/ml of IL-2 detected)
[3]; analog:CII 245-270 molar ratios of 6:1 or greater
  Ability of competitively pulsed APC to stimulate the T-cell hybridomas: greatly reduced
[3]
  Binding to I-A^q / competition for presentation of the wild type peptide to T-cell hybridomas: capable of binding to I-A^q
[4]; co-immunized with CII at various molar ratios
  Incidence of arthritis and number of arthritic limbs, in words: dose-dependent decrease
[4]
  Development / incidence of arthritis, in words: arthritis did not develop
CII-primed T cells
  T cell stimulation (γ-interferon) compared to the wild type peptide CII 245-270: did not respond
CII-primed, bulk T cells
  T cell responses to CII 245-270 and CII: significantly decreased responses to both CII 245-270 and CII in a dose dependent manner

## Pro - Thr - Gly - Pro - Leu - Gly - Pro - Lys - Gly - Gin - Thr - Gly - Glx - Leu - Gly - Ile - Ala - Gly - Phe - Lys - Gly - Glx - Gln - Gly - Pro - Lys [CII 245-270, reference compound]
[1]
  Effectiveness as neonatal tolerogen, in words: effective tolerogen
[5]
  Suppression of arthritis as neonatal tolerogen: suppresses arthritis
Antibodies to CII
  Antibodies to CII: 18.5 ± 8
[2]; molar ratio CII:peptide 1:480
  Antibodies to CII: 54 ± 25 units of activity
[4]
  Development / incidence of arthritis, in words: did not alter the incidence of disease

## CII 245-270 [s266, 267, 269]: analog of CII 245-270 with D at 266, T at 267, A at 269 (type I collagen based substitutions) (PTGPLGPKGQTGELGIAGFKGDTGAK)
[3]
  Binding to I-A^q / competition for presentation of the wild type peptide to T-cell hybridomas: did not compete
CII-primed T cells
  T cell stimulation (γ-interferon) compared to the wild type peptide CII 245-270: did not respond
CII-primed, bulk T cells
  T cell responses to CII 245-270 and CII: no significant effect
